Measurements: article PMC11879040, “Advancing systemic toxicity risk assessment: Evaluation of a NAM-based toolbox approach” (Toxicological Sciences, 2024)
Like-named read-outs stand apart in the source and are kept apart here.

Key:
[1] = biological target: Delta-type opioid receptor, OPRD1 (h) (Homo sapiens, UniProt P41143); details: ligand/control DPDPE
[2] = tested on: Potassium Voltage-Gated Channel Kv non-selective, KCNQ1 (r); test: IPP KCNQ1 binding (antagonist radioligand); set-up: species or system rat
[3] = biological target: T1, Cholecystokinin receptor type A, CCKAR (h) (Homo sapiens, UniProt P32238); test: IPP CCKAR binding (agonist radioligand); details: control CCK-8s
T1 sequence (P32238 1-428): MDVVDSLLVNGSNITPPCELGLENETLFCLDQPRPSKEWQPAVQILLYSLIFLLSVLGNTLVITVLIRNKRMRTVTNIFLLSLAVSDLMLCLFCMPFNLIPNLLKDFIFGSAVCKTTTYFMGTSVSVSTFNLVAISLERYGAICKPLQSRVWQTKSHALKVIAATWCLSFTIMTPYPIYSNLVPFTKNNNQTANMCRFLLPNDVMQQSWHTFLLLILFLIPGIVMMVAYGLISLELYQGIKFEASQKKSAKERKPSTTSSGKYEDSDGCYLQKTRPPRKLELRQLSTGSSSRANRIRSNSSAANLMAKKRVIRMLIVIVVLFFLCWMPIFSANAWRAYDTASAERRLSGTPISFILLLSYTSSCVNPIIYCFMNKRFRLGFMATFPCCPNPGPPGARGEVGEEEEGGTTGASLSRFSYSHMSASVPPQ

MCF7 cells = test: High-throughput transcriptomics (HTTr, TempO-Seq), MCF7, 24 h; assay type: cell-based, human; details: MCF-7; for pod_httr_bifrost PoD: HTTr BIFROST PoD; for podl_path_minbmd PoD: HTTr minimum pathway BMD(L)
Protocol: HepG2, HepaRG, and MCF7 cells were treated with each compound for 24 h across a dose range of 7 concentrations and lysed using TempO-Seq lysis buffer (BioSpyder Technologies, proprietary kit, see [Middleton et al. 2022] for method details). Sequencing was performed using TempO-Seq (BioClavis) version 2 of the human whole transcriptome panel and analyzed as described previously in Middleton et al.

[4] = biological target: T2, Muscarinic acetylcholine receptor M1, CHRM1 (h) (Homo sapiens, UniProt P11229); assay type: binding; details: control pirenzepine
T2 construct: purchased Eurofins Cerep (SafetyScreen44-based IPP panel)
T2 sequence (P11229 1-460): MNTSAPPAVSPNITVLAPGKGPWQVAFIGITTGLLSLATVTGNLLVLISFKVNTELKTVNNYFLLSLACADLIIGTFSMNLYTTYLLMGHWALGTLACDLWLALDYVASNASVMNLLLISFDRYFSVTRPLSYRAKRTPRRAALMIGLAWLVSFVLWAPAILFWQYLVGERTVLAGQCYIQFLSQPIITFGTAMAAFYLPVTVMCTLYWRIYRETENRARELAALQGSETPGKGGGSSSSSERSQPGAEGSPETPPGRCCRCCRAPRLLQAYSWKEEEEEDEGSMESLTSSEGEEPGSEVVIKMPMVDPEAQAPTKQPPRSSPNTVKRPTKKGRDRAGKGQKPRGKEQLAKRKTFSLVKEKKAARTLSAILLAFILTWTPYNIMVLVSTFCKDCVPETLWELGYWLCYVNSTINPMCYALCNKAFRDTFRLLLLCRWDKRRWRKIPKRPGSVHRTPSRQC

[5] = biological target: cGMP-inhibited 3',5'-cyclic phosphodiesterase A, PDE3A (h) (Homo sapiens, UniProt Q14432); test: IPP PDE3A enzymatic activity; assay type: biochemical; details: control milrinone
[6] = biological target: T3, Estrogen receptor, ER1 (h) (Homo sapiens, UniProt P03372); test: IPP ER1 coactivator recruitment (antagonist); assay type: biochemical; details: estriol
T3 construct: purchased Eurofins Cerep (SafetyScreen44-based IPP panel)
T3 sequence (P03372 1-595): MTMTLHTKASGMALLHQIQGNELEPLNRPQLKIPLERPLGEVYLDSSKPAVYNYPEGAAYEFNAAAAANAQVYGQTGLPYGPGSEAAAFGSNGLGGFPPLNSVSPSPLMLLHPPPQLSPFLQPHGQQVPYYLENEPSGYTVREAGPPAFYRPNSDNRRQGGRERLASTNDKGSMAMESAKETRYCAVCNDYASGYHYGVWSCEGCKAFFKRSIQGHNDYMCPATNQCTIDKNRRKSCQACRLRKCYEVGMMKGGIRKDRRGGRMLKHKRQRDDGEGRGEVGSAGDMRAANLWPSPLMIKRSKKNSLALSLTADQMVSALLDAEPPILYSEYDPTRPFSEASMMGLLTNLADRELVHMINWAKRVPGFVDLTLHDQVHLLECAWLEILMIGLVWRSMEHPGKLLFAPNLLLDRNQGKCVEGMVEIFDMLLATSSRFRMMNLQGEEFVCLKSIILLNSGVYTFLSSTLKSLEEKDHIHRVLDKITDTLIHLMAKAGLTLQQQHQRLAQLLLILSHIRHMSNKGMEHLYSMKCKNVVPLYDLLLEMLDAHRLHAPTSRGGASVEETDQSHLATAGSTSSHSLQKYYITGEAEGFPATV

[7] = Assignment of risk classifications to benchmark chemical-exposure scenarios; details: for risk: from table S1
[8] = biological target: T3, Estrogen receptor, ER1 (h); test: IPP ER1 coactivator recruitment (agonist); assay type: biochemical; details: estriol
[9] = biological target: Sodium-dependent serotonin transporter, SLC6A4 (h) (Homo sapiens, UniProt P31645); assay type: binding; details: control imipramine
[10] = biological target: T4, 5-hydroxytryptamine receptor 3A, HTR3A (h) (Homo sapiens, UniProt P46098); details: control MDL 72222
T4 sequence (P46098 24-478): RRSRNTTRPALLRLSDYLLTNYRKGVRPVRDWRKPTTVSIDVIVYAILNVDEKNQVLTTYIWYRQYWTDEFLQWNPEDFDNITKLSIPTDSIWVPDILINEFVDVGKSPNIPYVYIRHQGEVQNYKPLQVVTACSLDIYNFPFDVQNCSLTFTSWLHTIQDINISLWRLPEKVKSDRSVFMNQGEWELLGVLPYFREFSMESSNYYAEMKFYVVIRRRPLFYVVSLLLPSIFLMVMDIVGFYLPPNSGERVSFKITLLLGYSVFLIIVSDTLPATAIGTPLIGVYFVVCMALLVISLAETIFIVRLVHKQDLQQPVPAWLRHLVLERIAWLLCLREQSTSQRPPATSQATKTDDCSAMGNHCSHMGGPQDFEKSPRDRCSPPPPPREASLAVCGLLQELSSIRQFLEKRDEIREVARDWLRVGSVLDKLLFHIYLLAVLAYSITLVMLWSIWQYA

[11] = 100 uM, * denotes assay interference (2-Amino-6-chloro-4-nitrophenol, HC Red 3)

Sequence of Sodium-dependent serotonin transporter, SLC6A4 (h) (P31645 whole entry): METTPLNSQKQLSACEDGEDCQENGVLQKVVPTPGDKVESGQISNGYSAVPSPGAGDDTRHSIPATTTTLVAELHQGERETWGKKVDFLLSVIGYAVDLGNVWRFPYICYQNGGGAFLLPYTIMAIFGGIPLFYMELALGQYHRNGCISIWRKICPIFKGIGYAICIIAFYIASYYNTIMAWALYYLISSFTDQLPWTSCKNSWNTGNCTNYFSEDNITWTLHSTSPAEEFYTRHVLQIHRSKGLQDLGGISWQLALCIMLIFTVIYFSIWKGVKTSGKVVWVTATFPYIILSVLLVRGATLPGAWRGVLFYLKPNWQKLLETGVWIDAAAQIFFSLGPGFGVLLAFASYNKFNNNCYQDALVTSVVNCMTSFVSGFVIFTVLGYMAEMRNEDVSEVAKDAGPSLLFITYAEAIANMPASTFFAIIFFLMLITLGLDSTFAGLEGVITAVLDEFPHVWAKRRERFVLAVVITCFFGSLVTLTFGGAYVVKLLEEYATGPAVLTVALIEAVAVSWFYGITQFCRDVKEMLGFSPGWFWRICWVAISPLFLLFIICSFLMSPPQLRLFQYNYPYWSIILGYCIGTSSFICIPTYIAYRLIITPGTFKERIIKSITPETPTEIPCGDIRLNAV
Sequence of cGMP-inhibited 3',5'-cyclic phosphodiesterase A, PDE3A (h) (Q14432 whole entry): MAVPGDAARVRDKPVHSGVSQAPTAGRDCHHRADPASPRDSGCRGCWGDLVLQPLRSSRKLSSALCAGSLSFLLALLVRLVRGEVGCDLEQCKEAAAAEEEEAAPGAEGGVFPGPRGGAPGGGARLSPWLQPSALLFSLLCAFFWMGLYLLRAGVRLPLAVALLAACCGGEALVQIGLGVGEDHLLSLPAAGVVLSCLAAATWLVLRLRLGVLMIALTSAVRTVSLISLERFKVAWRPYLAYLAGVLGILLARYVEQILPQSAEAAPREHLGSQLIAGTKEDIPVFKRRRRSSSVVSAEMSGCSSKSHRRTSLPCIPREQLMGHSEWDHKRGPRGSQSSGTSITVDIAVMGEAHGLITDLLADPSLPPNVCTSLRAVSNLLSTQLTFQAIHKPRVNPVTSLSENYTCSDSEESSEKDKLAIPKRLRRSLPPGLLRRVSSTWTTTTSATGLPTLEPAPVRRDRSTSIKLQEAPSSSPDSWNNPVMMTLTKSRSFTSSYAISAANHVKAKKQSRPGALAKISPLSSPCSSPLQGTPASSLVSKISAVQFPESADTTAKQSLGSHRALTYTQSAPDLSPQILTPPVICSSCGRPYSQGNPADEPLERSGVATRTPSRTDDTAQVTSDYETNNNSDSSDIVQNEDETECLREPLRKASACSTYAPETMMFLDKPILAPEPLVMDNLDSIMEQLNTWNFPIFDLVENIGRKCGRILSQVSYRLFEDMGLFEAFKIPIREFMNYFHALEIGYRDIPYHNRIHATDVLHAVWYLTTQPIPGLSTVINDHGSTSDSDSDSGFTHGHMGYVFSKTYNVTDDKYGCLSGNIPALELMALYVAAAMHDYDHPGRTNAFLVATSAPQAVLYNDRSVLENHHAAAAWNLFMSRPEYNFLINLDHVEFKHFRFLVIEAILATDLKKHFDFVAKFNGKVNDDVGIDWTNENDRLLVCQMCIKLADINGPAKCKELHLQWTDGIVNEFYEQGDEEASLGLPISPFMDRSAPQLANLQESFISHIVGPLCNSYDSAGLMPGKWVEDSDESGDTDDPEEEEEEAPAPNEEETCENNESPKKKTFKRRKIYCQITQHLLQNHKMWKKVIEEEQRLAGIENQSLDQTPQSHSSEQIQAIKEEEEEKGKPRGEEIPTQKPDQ
Sequence of Delta-type opioid receptor, OPRD1 (h) (P41143 whole entry): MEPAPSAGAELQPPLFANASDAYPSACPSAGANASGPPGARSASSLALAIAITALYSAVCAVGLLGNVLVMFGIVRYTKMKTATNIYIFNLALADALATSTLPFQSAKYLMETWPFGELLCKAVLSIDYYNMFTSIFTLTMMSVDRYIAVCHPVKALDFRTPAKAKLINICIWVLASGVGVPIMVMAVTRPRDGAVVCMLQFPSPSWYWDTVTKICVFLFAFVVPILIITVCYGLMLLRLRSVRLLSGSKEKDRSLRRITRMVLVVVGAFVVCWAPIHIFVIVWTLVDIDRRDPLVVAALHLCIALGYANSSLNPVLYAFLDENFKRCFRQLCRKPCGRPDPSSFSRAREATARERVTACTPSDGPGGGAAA

Row | Compound | IPP screening %, Specific binding ([1]; 10 uM) [%] | Specific binding [2] [%] | Specific binding ([3]; IPP screening at 10 uM) [%] | pod_httr_bifrost PoD (MCF7 cells) [µM] | podl_path_minbmd PoD (MCF7 cells) [µM] | Specific binding ([4]; IPP screening at 10 uM) [%] | Enzymatic activity ([5]; IPP screening at 10 uM) [%] | IPP screening %, Coactivator recruitment ([6]; 10 uM) [%] | IPP screening %, Coactivator recruitment ([8]; 10 uM) [%] | Specific binding ([9]; IPP screening at 10 uM) [%] | Specific binding ([10]; IPP screening at 10 uM) [%] | other results
1 | CCOP(=S)(OCC)Oc1nc(Cl)c(Cl)cc1Cl [Chlorpyrifos, O,O-Diethyl O-(3,5,6-trichloropyridin-2-yl) phosphorothioate] | 2.5 | 15.4 | 55.2 | 0.08218 | 3.743 | -5.6 | 36.9 | 9.0 | -1.0 | -9.1 | -1.0 | risk ([7]; Oral, 0.1 mg/kg, Tablet, Exp3): 1
2 | CC(C)(C)c1ccc(CCOc2ncnc3ccccc23)cc1 [Fenazaquin, 4-[2-(4-tert-Butylphenyl)ethoxy]quinazoline] | 46.9 | – | 60.9 | 0.001313 | 0.3873 | 12.0 | 32.4 | 4.0 | -2.0 | 4.6 | -0.1 | Specific binding ([2]; IPP screening at 10 uM, control α-dendrotoxin): -1.6%; Risk Classification ([7]; Oral, residue, 0.005 mg/kg bw/day): Low risk; risk ([7]; Oral, 17% ADI 0.005 mg/kg bw/day, Food residue, Exp2): 0; risk ([7]; Oral, ADI 0.005 mg/kg bw/day, Food residue, Exp3): 0
3 | CC1(C)O[C@@H]2[C@@H](CO[C@@]3(COS(N)(=O)=O)OC(C)(C)O[C@@H]23)O1 [Topiramate, [(3aS,5aR,8aR,8bS)-2,2,7,7-Tetramethyltetrahydro-2H,3aH,7H-bis[1,3]dioxolo[4,5-b:4',5'-d]pyran-3a-yl]methyl sulfamate (non-preferred name)] | – | – | – | 22.6252 | 512.687 | – | – | – | – | – | – | IPP screening %, Specific binding ([1]; 100 uM): 2.3%; Specific binding ([2]; IPP screening at 100 uM, control α-dendrotoxin): -2.7%; Specific binding ([3]; IPP screening at 100 uM): 9.6%; Specific binding ([4]; IPP screening at 100 uM): 12.2%; Enzymatic activity ([5]; IPP screening at 100 uM): 12%; IPP screening %, Coactivator recruitment [6, 11]: -1.0%; Risk Classification ([7]; Oral 50 mg/day): High risk; Risk Classification ([7]; Oral 500 mg/day): High risk; risk ([7]; Oral, High therapeutic, 500mg/day, Tablet, Exp1): 1; risk ([7]; Oral, Low therapeutic, 50mg/day, Tablet, Exp2): 1; IPP screening %, Coactivator recruitment [8, 11]: -1.0%; Specific binding ([9]; IPP screening at 100 uM): 3.5%; Specific binding ([10]; IPP screening at 100 uM): -1.3%
4 | (4S,4aR,5S,5aR,6S,12aS)-4-(Dimethylamino)-3,5,6,10,12,12a-hexahydroxy-6-methyl-1,11-dioxo-1,4,4a,5,5a,6,11,12a-octahydrotetracene-2-carboxamide--hydrogen chloride (1/1) [Oxytetracycline hydrochloride] | -5.6 | -19.0 | 7.8 | – | – | – | 30.0 | – | – | – | -6.5 | –
5 | mixture of 2- and 3-tert-butyl-4-methoxyphenol [Butylated Hydroxyanisole] | -2.3 | 4.9 | 4.2 | – | – | 8.4 | 22.6 | – | – | 2.8 | 15.3 | –
